Results from paper PMC9425435, “Antiviral Profiling of C-18- or C-19-Functionalized Semisynthetic Abietane Diterpenoids” (Journal of Natural Products, 2022).
Like-named read-outs stand apart in the source and are kept apart here. Marks after values point to notes of the source that are not given here.

Key:
Vero-E6 cells = test: Cytotoxicity CC100 in Vero-E6 cells (72 h); conditions: for CC100 (100% cytotoxic concentration): Vero-E6 cells, 72h; for Cytostatic compounds (asterisk at the label): Table 1 footnote mark
BHK-21 cells = test: Cytotoxicity CC100 in BHK-21 cells (6 days)
ZIKV (Zika virus) [1] = test: Plaque reduction assay (PFU), ZIKV in Vero E6; type: cell-based; conditions: ZIKV, Vero E6, PFU/well 150 ± 25
[2] = system: DENV-2 (Dengue virus type 2); test: Plaque reduction assay (PFU), DENV-2 in BHK21; type: cell-based; conditions: for % inhibition (PFU): DENV-2, BHK21, PFU/well 150 ± 25
ZIKV (Zika virus) [3] = test: End-point titration technique (EPTT), cytopathic effect inhibition, ZIKV in Vero E6; type: cell-based; conditions: Vero E6, 10TCID50, EPTT
HHV-1, 29R strain = type: cell-based, human Alpha herpesvirus type 1
[4] = system: CHIKV (Chikungunya virus); test: End-point titration technique (EPTT), viral titer reduction factor, CHIKV in Vero E6; type: cell-based; conditions: for Rf (reduction factor of the viral titer): Vero E6, 10TCID50, EPTT
[5] = system: DENV-2 (Dengue virus type 2); test: End-point titration technique (EPTT), cytopathic effect inhibition, DENV-2 in Vero E6; type: cell-based; conditions: DENV-2, Vero E6, 10TCID50, EPTT

Molecule | CC100 (100% cytotoxic concentration) (Vero-E6 cells) [µg/mL] | CC100 (100% cytotoxic concentration) (BHK-21 cells) [µg/mL] | % inhibition (PFU) (ZIKV (Zika virus) [1]) [%] | Rf (reduction factor of the viral titer) (HHV-1, 29R strain; Vero E6, 10TCID50, EPTT) | other results
CC(C)c1cc2c(cc1O)[C@@]1(C)CCC[C@](C)(CO)[C@@H]1CC2=O [Compound 21b] | >25 | 25 | – | – | –
COC(=O)[C@@]1(C)CCC[C@]2(C)c3cc(C(C)=O)c(C(C)C)cc3CC[C@@H]12 [Compound 15b] | >50 | 50 | 29 ± 14 | – | % inhibition (PFU) [2]: 68 ± 20%
COC(=O)[C@]1(C)CCC[C@]2(C)c3cc(O)c(C(C)C)cc3C(=O)C[C@@H]12 [Compound 22a] | 50 | 25 | – | – | –
COC(=O)[C@@]1(C)CCC[C@]2(C)c3cc(OC(C)=O)c(C(C)C)cc3C(=O)C[C@@H]12 [Compound 17b] | 50 | 25 | – | not active | inhibition ECytop (inhibitory cytopathic effect compared to the infection control) (ZIKV (Zika virus) [3]): +
CC(C)c1ccc2c(c1O)CC[C@H]1[C@](C)(CO)CCC[C@]21C [Compound 26] | >25 | >25 | – | not active | inhibition ECytop (inhibitory cytopathic effect compared to the infection control) (ZIKV (Zika virus) [3]): +
heparin [reference compound] | – | – | – | – | CC100 (100% cytotoxic concentration) (Vero-E6 cells; heparin): >100 U.I; Nontoxic concentration that showed higher viral reduction factor ([4]; Vero E6, EPTT, heparin): 10 U.I.; Nontoxic concentration that showed higher viral reduction factor (HHV-1, 29R strain; Vero E6, EPTT, heparin): 10 U.I.
CC(C)c1cc2c(cc1O)[C@@]1(C)CCC[C@@](C)(C(=O)O)[C@@H]1CC2=O [Compound 23a, liquiditerpenoic acid A] | >50 | 50 | – | – | –
CC(C)c1cc2c(cc1O)[C@@]1(C)CCC[C@](C)(C(=O)O)[C@@H]1CC2=O [Compound 23b] | 25 | 12.5 | – | not active | –
COC(=O)[C@]1(C)CCC[C@]2(C)c3cc(OC(C)=O)c(C(C)C)cc3CC[C@@H]12 [Compound 16a] | 50 | 50 | 22 ± 13 | – | inhibition ECytop (inhibitory cytopathic effect compared to the infection control) (ZIKV (Zika virus) [3]): +; Rf (reduction factor of the viral titer) [4]: 10^2
COC(=O)[C@]1(C)CCC[C@]2(C)c3ccc(C(C)C)cc3CC[C@@H]12 [Compound 12, methyl dehydroabietate] | >50 | 50 | 25 ± 10 | – | inhibition ECytop (inhibitory cytopathic effect compared to the infection control) (ZIKV (Zika virus) [3]): +
COC(=O)[C@]1(C)CCC[C@]2(C)c3cc(C(C)=O)c(C(C)C)cc3CC[C@@H]12 [Compound 15a] | >50 | 25 | – | – | –
COC(=O)[C@]1(C)CCC[C@]2(C)c3cc(O)c(C(C)C)cc3CC[C@@H]12 [Compound 18a] | 50 | 25 | – | – | –
CC(C)c1cc2c(cc1O)[C@@]1(C)CCC[C@@](C)(CO)[C@@H]1CC2=O [Compound 21a] | 25 | 12.5 | 27 ± 12 | – | Rf (reduction factor of the viral titer) [4]: 10^2; inhibition ECytop (inhibitory cytopathic effect compared to the infection control) [5]: +
CC(C)c1cc2c(cc1O)[C@@]1(C)CCC[C@](C)(C(=O)O)[C@@H]1CC2 [Compound 19b, lambertic acid] | >50 | >50 | 27 ± 17 | – | inhibition ECytop (inhibitory cytopathic effect compared to the infection control) (ZIKV (Zika virus) [3]): +; % inhibition (PFU) [2]: 35 ± 10%
COC(=O)[C@@]1(C)CCC[C@]2(C)c3cc(OC(C)=O)c(C(C)C)cc3CC[C@@H]12 [Compound 16b] | 25 | 25 | 29 ± 9 | not active | inhibition ECytop (inhibitory cytopathic effect compared to the infection control) (ZIKV (Zika virus) [3]): +; inhibition ECytop (inhibitory cytopathic effect compared to the infection control) [5]: +
CC(C)c1ccc2c(c1O)CC[C@H]1[C@](C)(C(=O)O)CCC[C@]21C [Compound 25] | >25 | >25 | 20 ± 09 | not active | –
CC(C)c1cc2c(cc1O)[C@@]1(C)CCC[C@@](C)(CO)[C@@H]1CC2 [Compound 20a, 18-hydroxyferruginol] | 50 | 50 | 19 ± 11 | – | Cytostatic effect (Vero-E6 cells): cytostatic; Cytostatic compounds (asterisk at the label) (Vero-E6 cells): 20a*; Rf (reduction factor of the viral titer) [4]: 10^2; % inhibition (PFU) [2]: 25 ± 10%
CC(C)c1cc2c(cc1O)[C@@]1(C)CCCC(C)(C)[C@@H]1CC2 [Compound 5, (+)-ferruginol] | >50 | >50 | 38 ± 15 | not active | Rf (reduction factor of the viral titer) [4]: 10^2; % inhibition (PFU) [2]: 28 ± 10%
dextran sulfate [DS, reference compound] | >50 | – | – | – | Nontoxic concentration that showed higher viral reduction factor (HHV-1, 29R strain; Vero E6, 10TCID50, EPTT): 5 µg/mL
CC(C)c1ccc2c(c1)CC[C@H]1C(C)(CO)CCC[C@]21C (some centres unmarked) [Compound 14] | >50 | >50 | 37 ± 15 | not active | Rf (reduction factor of the viral titer) [4]: 10^2; % inhibition (PFU) [2]: 30 ± 10%
COC(=O)[C@@]1(C)CCC[C@]2(C)c3cc(O)c(C(C)C)cc3C(=O)C[C@@H]12 [Compound 22b] | 25 | 12.5 | – | not active | inhibition ECytop (inhibitory cytopathic effect compared to the infection control) [5]: +
CC(C)c1cc2c(cc1O)[C@@]1(C)CCC[C@](C)(CO)[C@@H]1CC2 [Compound 20b, 19-hydroxyferruginol] | 25 | 12.5 | – | – | inhibition ECytop (inhibitory cytopathic effect compared to the infection control) (ZIKV (Zika virus) [3]): +; Rf (reduction factor of the viral titer) [4]: 10^2
CC(C)c1ccc2c(c1)CC[C@H]1C(C)(C(=O)O)CCC[C@]21C (some centres unmarked) [Compound 13] | 50 | 50 | 19 ± 12 | – | Cytostatic compounds (asterisk at the label) (Vero-E6 cells): 13*; inhibition ECytop (inhibitory cytopathic effect compared to the infection control) [5]: +
CC(C)c1cc2c(cc1O)[C@@]1(C)CCC[C@@](C)(C(=O)O)[C@@H]1CC2 [Compound 19a, 12-hydroxydehydroabietic acid] | 25 | 12.5 | – | – | –
COC(=O)[C@]1(C)CCC[C@]2(C)c3cc(OC(C)=O)c(C(C)C)cc3C(=O)C[C@@H]12 [Compound 17a] | 25 | 25 | – | – | –
COC(=O)[C@]1(C)CCC[C@]2(C)c3ccc(C(C)C)c(O)c3CC[C@@H]12 [Compound 24, methyl 14-hydroxy-dehydroabietate] | >25 | >25 | 51 ± 15 | – | Rf (reduction factor of the viral titer) [4]: 10^2; % inhibition (PFU) [2]: 48 ± 9%; Most active concentration, in μM ([2]; DENV-2 PFU assay, conversion of 3.1 μg/mL): ca. 9.3 μM
COC(=O)[C@@]1(C)CCC[C@]2(C)c3cc(O)c(C(C)C)cc3CC[C@@H]12 [Compound 18b] | >50 | 50 | 48 ± 12 | not active | Rf (reduction factor of the viral titer) [4]: 10^2; % inhibition (PFU) [2]: 51 ± 8%
